Results published in patent publication US8551999B2, “Heterocyclic compound and pharmaceutical composition thereof” (Otsuka Pharmaceutical Co., Ltd., priority 2007, dated 2013).

Row | melting point | Compound
1 | 147 to 149 °C | CC(C)Cc1ccc(CN2CCN(C(=O)c3cc4cc(Oc5ccc(N(C)C(=O)c6ccc(C(F)(F)F)cc6)cn5)ccc4n3C)CC2)cc1.O=C(O)/C=C\C(=O)O [Example 416, N-(6-{2-[4-(4-Isobutylbenzyl)piperazine-1-carbonyl]-1-methyl-1H-indol-5-yloxy}pyridin-3-yl)-N-methyl-4-trifluoromethylbenzamide maleate]
2 | 237 to 239 °C | Br.CN(C(=O)c1ccc(C(F)(F)F)cc1)c1ccc(Oc2ccc3cc(C(=O)N4CCN(Cc5ccc(OC(F)(F)F)cc5)CC4)n(C)c3c2)nc1 [Example 446, N-Methyl-N-(6-{1-methyl-2-[4-(4-trifluoromethoxybenzyl)-piperazine-1-carbonyl]-1H-indol-6-yloxy}pyridin-3-yl)-4-tri-fluoromethylbenzamide hydrobromide]
3 | 228 to 229 °C | Cn1c(C(=O)N2CCN(Cc3ccc(C#N)cc3)CC2)cc2cccc(Oc3ccc(NC(=O)c4ccc(C(F)(F)F)cc4)cn3)c21 [Example 245, N-(6-{2-[4-(4-Cyanobenzyl)piperazine-1-carbonyl]-1-methyl-1H-indol-7-yloxy}pyridin-3-yl)-4-trifluoromethylbenzamide]
4 | 229 to 230 °C | Br.CN(C(=O)c1ccc(C(F)(F)F)cc1)c1ccc(Oc2ccc3cc(C(=O)N4CCN(Cc5ccc(OC(F)F)cc5)CC4)n(C)c3c2)nc1 [Example 422, N-(6-{2-[4-(4-Difluoromethoxybenzyl)piperazine-1-carbonyl]-1-methyl-1H-indol-6-yloxy}pyridin-3-yl)-N-methyl-4-trifluoromethyl-benzamide hydrobromide]
5 | 140 to 142 °C | CC(C)Oc1ccc(CN2CCN(C(=O)c3cc4cc(Oc5ccc(N(C)C(=O)c6ccc(C(F)(F)F)cc6)cn5)ccc4n3C)CC2)cc1.O=C(O)/C=C\C(=O)O [Example 410, N-(6-{2-[4-(4-Isopropoxybenzyl)piperazine-1-carbonyl]-1-methyl-1H-indol-5-yloxy}pyridin-3-yl)-N-methyl-4-trifluoromethyl-benzamide maleate]
6 | 157.7 to 160.2 °C | Cn1c(C(=O)N2CCN(Cc3ccc(OC(CF)CF)cc3)CC2)cc2ccc(Oc3ccc(NS(=O)(=O)C4=CC=C(Cl)C(C)(Cl)C4)cn3)cc21 (stereo not shown) [Example 506, 3,4-Dichloro-N-[6-(2-{4-[4-(2-fluoro-1-fluoromethylethoxy)-benzyl]piperazine-1-carbonyl}-1-methyl-1H-indol-6-yloxy)pyridin-3-yl]-M-methylbenzenesulfonamide]
7 | 137 to 139 °C | COCc1ccc(CN2CCN(C(=O)c3cc4cc(Oc5ccc(N(C)C(=O)c6ccc(C(F)(F)F)cc6)cn5)ccc4n3C)CC2)cc1.O=C(O)/C=C\C(=O)O [Example 415, N-(6-{2-[4-(4-Methoxymethylbenzyl)piperazine-1-carbonyl]-1-methyl-1H-indol-5-yloxy}pyridin-3-yl)-N-methyl-4-trifluoromethyl-benzamide maleate]
8 | 240 to 242 °C | Br.CCCOc1ccc(CN2CCN(C(=O)c3cc4ccc(Oc5ccc(N(C)C(=O)c6ccc(OC(F)(F)F)cc6)cn5)cc4n3C)CC2)cc1 [Example 471, N-Methyl-N-(6-{1-methyl-2-[4-(4-propoxybenzyl)piperazine-1-carbonyl]-1H-indol-6-yloxy}pyridin-3-yl)-4-trifluoromethoxy-benzamide hydrobromide]
9 | 208 to 210 °C | Cn1c(C(=O)N2CCN(C3CCOCC3)CC2)cc2cc(Oc3ccc(NS(=O)(=O)c4ccc(Cl)c(Cl)c4)cn3)ccc21 [Example 331, 3,4-Dichloro-N-(6-{1-methyl-2-[4-(tetrahydropyran-4-yl)-piperazine-1-carbonyl]-1H-indol-5-yloxy}pyridin-3-yl)-benzenesulfonamide]
10 | 176 to 178 °C | Cn1c(C(=O)N2CCN(Cc3ccccn3)CC2)cc2ccc(Oc3ccc(NC(=O)c4ccc(C(F)(F)F)cc4)cn3)cc21.O=C(O)C(=O)O.O=C(O)C(=O)O [Example 236, N-{6-[1-Methyl-2-(4-pyridin-2-ylmethylpiperazine-1-carbonyl)-1H-indol-6-yloxy]pyridin-3-yl}-4-trifluoromethylbenzamide dioxalate]
11 | 232.8 to 235.6 °C | CC(C)N(c1ccc(Oc2ccc3cc(C(=O)N4CCN(Cc5ccc(OCC(F)(F)F)cc5)CC4)n(C)c3c2)nc1)S(=O)(=O)c1ccc(Cl)c(Cl)c1.Cl
12 | 220 to 223 °C | Br.Cc1cc(CN2CCN(C(=O)c3cc4cc(Oc5ccc(NC(=O)c6ccc(C(F)(F)F)cc6)cn5)ccc4n3C)CC2)no1 [Example 569, N-(6-{1-Methyl-2-[4-(5-methylisoxazol-3-ylmethyl)piperazine-1-carbonyl]-1H-indol-5-yloxy}pyridin-3-yl)-4-trifluoromethyl-benzamide hydrobromide]
13 | 258 to 261 °C (dec.) | Br.Cn1c(C(=O)N2CCN(Cc3ccc4c(c3)OCO4)CC2)cc2cc(Oc3ccc(NC(=O)c4ccc(C(F)(F)F)cc4C(F)(F)F)cn3)ccc21 [Example 9, N-{6-[2-(4-Benzo[1,3]dioxol-5-ylmethylpiperazine-1-carbonyl)-1-methyl-1H-indol-5-yloxy]pyridin-3-yl}-2,4-bistrifluoromethyl-benzamide hydrobromide]
14 | 227.4 to 229.2 °C | Br.CN(C(=O)c1ccc(OC(F)(F)F)cc1)c1ccc(Oc2ccc3cc(C(=O)N4CCN(Cc5ccc(OCC(F)(F)F)cc5)CC4)n(C)c3c2)nc1 [Example 456, N-Methyl-N-[6-(1-methyl-2-{4-[4-(2,2,2-trifluoroethoxy)benzyl]-piperazine-1-carbonyl}-1H-indol-6-yloxy)pyridin-3-yl]-4-tri-fluoromethoxybenzamide hydrobromide]
15 | 152 to 160 °C | CCN(C(=S)Nc1ccc(Cl)c(Cl)c1)c1ccc(Oc2ccc3c(c2)cc(C(=O)N2CCN(Cc4ccc5c(c4)OCO5)CC2)n3C)nc1.Cl
16 | 167 to 174 °C | Br.CN(c1ccc(C(F)(F)F)cc1)c1ccc(Oc2ccc3c(c2)cc(C(=O)N2CCN(Cc4ccncc4)CC2)n3C)nc1 [Example 337, (1-Methyl-5-{5-[methyl(4-trifluoromethylphenyl)amino]pyridin-2-yloxy}-1H-indol-2-yl)(4-pyridin-4-ylmethylpiperazin-1-yl)-methanone hydrobromide]
17 | 163 to 165 °C | COc1ccc(CN2CCN(C(=O)c3cc4cc(Oc5ccc(N(C)C(=O)c6ccc(C(F)(F)F)cc6Cl)cn5)ccc4n3C)CC2)cc1.O=C(O)C(=O)O [Example 16, 2-Chloro-N-(6-{2-[4-(4-methoxybenzyl)piperazine-1-carbonyl]-1-methyl-1H-indol-5-yloxy}pyridin-3-yl)-N-methyl-4-trifluoromethyl-benzamide oxalate]
18 | 229.7 to 230.4 °C | CC(C)Oc1ccc(CN2CCN(C(=O)c3cc4ccc(Oc5ccc(N(C)C(=O)c6ccc(OC(F)F)cc6)cn5)cc4n3C)CC2)cc1.Cl
19 | 131.1 to 132.8 °C | Cc1ccc(S(=O)(=O)N(C)c2ccc(Oc3ccc4cc(C(=O)N5CCN(Cc6ccc(OC(C)C)nc6)CC5)n(C)c4c3)nc2)cc1 [Example 534, N-(6-{2-[4-(6-Isopropoxypyridin-3-ylmethyl)piperazine-1-carbonyl]-1-methyl-1H-indol-6-yloxy}pyridin-3-yl)-4,N-dimethyl-benzenesulfonamide]
20 | 254 to 255.7 °C | Br.CCCOc1ccc(CN2CCN(C(=O)c3cc4ccc(Oc5ccc(NC(=O)c6ccc(C(F)(F)F)cc6)cn5)cc4n3C)CC2)cc1 [Example 475, N-(6-{1-Methyl-2-[4-(4-propoxybenzyl)piperazine-1-carbonyl]-1H-indol-6-yloxy}pyridin-3-yl)-4-trifluoromethylbenzamide hydrobromide]
21 | 144 to 147 °C | CCCOc1ccc(CN2CCN(C(=O)c3cc4cc(Oc5ccc(N(C)C(=O)c6ccc(C(F)(F)F)cc6)cn5)ccc4n3C)CC2)cc1.O=C(O)/C=C\C(=O)O [Example 413, N-Methyl-N-(6-{1-methyl-2-[4-(4-propoxybenzyl)piperazine-1-carbonyl]-1H-indol-5-yloxy}pyridin-3-yl)-4-trifluoromethyl-benzamide maleate]
22 | 253.1 to 254.5 °C | CC(C)CN1CCN(C(=O)c2cc3ccc(Oc4ccc(N(C)C(=O)c5ccc(C(F)(F)F)cc5)cn4)cc3n2C)CC1.Cl
23 | 250.8 to 254.2 °C | Cl.Cn1c(C(=O)N2CCN(Cc3ccc(OCC(F)(F)F)cc3)CC2)cc2ccc(Oc3ncc(NC(=O)c4ccc(C(F)(F)F)cc4)cn3)cc21
24 | 255 to 257 °C | Br.CCCc1ccc(CN2CCN(C(=O)c3cc4ccc(Oc5ccc(N(C)C(=O)c6ccc(C(F)(F)F)cc6)cn5)cc4n3C)CC2)cc1 [Example 431, N-Methyl-N-(6-{1-methyl-2-[4-(4-propylbenzyl)piperazine-1-carbonyl]-1H-indol-6-yloxy}pyridin-3-yl)-4-trifluoromethyl-benzamide hydrobromide]
25 | 191 to 193 °C | Br.Br.CN(C(=O)c1ccc(C(F)(F)F)cc1)c1ccc(Oc2ccc3c(c2)cc(C(=O)N2CCN(Cc4cccnc4)CC2)n3C)nc1 [Example 559, N-Methyl-N-{6-[1-methyl-2-(4-pyridin-3-ylmethylpiperazine-1-carbonyl)-1H-indol-5-yloxy]pyridin-3-yl}-4-trifluoromethyl-benzamide dihydrobromide]
26 | 231.7 to 235 °C (dec.) | CCCOc1ccc(CN2CCN(C(=O)c3cc4ccc(Oc5ccc(N(C)S(=O)(=O)c6ccc(Cl)c(Cl)c6)cn5)cc4n3C)CC2)cc1 [Example 33, 3,4-Dichloro-N-methyl-N-(6-{1-methyl-2-[4-(4-propoxybenzyl)-piperazine-1-carbonyl]-1H-indol-6-yloxy}pyridin-3-yl)-benzenesulfonamide]
27 | 154 to 156 °C | CN(C(=O)c1ccc(C(F)(F)F)cc1)c1cnc(Oc2ccc3c(c2)cc(C(=O)N2CCN(Cc4ccc(C#N)cc4)CC2)n3C)nc1.O=C(O)/C=C\C(=O)O [Example 383, N-(2-{2-[4-(4-Cyanobenzyl)piperazine-1-carbonyl]-1-methyl-1H-indol-5-yloxy}pyrimidin-5-yl)-N-methyl-4-trifluoromethylbenzamide maleate]
28 | 142 to 144 °C | COc1ccccc1CN1CCN(C(=O)c2cc3cc(Oc4ccc(NC(=O)c5ccc(C(F)(F)F)cc5)cn4)ccc3n2C)CC1.O=C(O)C(=O)O [Example 354, N-(6-{2-[4-(2-Methoxybenzyl)piperazine-1-carbonyl]-1-methyl-1H-indol-5-yloxy}pyridin-3-yl)-4-trifluoromethylbenzamide oxalate]
